The target of one series is HIV integrase (Human immunodeficiency virus type 1 group M subtype B, UniProt P04585). Nature of the series: integrase strand transfer assay (STA). Type of series: biochemical.
The next series concerns HXB2 virus. Nature of the series: microbe, parasite or virus in culture. The format is cell-based, HIV. In outline: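 Single-cycle infectivity assay in HeLa P4-2 cells measuring inhibition of acute HIV infection, using HXB2 virus.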
Another series has as its system HeLa P4-2 cell line. An excerpt:
The HeLa P4-2 cell line used in the single cycle HIV infectivity Assay B of Example 270 was also used to determine compound cytotoxicity in the absence of viral infection.

For series [1], the target named is HIV-1 reverse transcriptase (RNase H) (Human immunodeficiency virus type 1 group M subtype B, UniProt P04585). Nature of the series: ASH assay: RNase H mediated RNA cleavage (ECL format, BioVeris M384). The format is biochemical. The method, then: Potency of a substance as an RNase H inhibitors can be determined by measuring its ability prevent RNase H catalyzed cleavage of the RNA strand in a RNA/DNA hybrid duplex substrate. RNase H activity is measured using a substrate generated by annealing the oligoribo-nucleotide 5′-rCrCrUrCrUrCrArArArArArCrArGrGrArGrCrArGrArArArGrArCrArArG (SEQ ID NO:1) to the oligodeoxyribonucleotide 5′-Biotin-[…] (SEQ ID NO:2). […] (SEQ ID NO:3). The resulting double-stranded duplex DNA product is quantitated in an ALPHA screen format using [streptavidin- and anti-fluorescein-coated beads (Packard Bioscience) following the manufacturer's guidelines and reading on a Fusion AlphaScreen instrument. Alternatively, the released 5′-Biotinylated DNA is annealed to a complementary oligodeoxyribonucleotide: 5′-ruthenium-[…] (SEQ ID NO:3). The resulting double-stranded duplex DNA product is quantitated in an ECL screen format using Dynabeads M280 coated with streptavidin (BioVeris Corporation) following the manufacturer's guidelines and reading on a BioVeris M384 Analyzer.

Setting [2] is: IC50 in the STA assay, integrase strand transfer.
Where [3] appears, read: STA (IC50, μM), integrase strand-transfer assay, Example 269.
Setting [4] is: Human immunodeficiency virus 1, HXB2, HeLaP4-2, read-out: SCIA-B (IC50, μM).
[5] abbreviates: Human immunodeficiency virus 1, HXB2, HeLaP4-2, read-out: antiviral IC50 (SCIA-B).
Where [6] appears, read: integrase strand transfer, read-out: IC50 in the STA assay.

Where two headings read alike, the source gives them in different places.

This is an account of results in patent US20100056516A1 (priority 2006, published 2010).

For `CCOC(=O)c1c(O)c2c(-c3ccccc3)ccnc2n(O)c1=O` [Example 4, Ethyl 1,4-dihydroxy-2-oxo-5-phenyl-1,2-dihydro-1,8-naphthylidine-3-carboxylate], the IC50 is less than 50 µM on HIV integrase (setting [2]); 0.24 µM against HIV integrase (setting [3]); 0.53 µM in the series with HXB2 virus (setting [4]); less than 100 µM in the series on HXB2 virus (setting [5]); 0.26 µM in series [1]. In the series on HeLa P4-2 cell line (human), the “Cytotoxicity (LD50, μM)” value was 50 µM.
For `O=C(NC1CCN(Cc2ccccc2)CC1)c1c(O)c2cccnc2n(O)c1=O.O=C(O)C(F)(F)F` [Example 21, N-(1-Benzylpiperidin-4-yl)-1,4-dihydroxy-2-oxo-1,2-dihydro-1,8-naphthyridine-3-carboxamide, trifluoro-acetic acid salt], the IC50 was less than 50 µM at HIV integrase (setting [2]); 0.25 µM against HIV integrase (setting [3]); 0.47 µM in the series on HXB2 virus (setting [4]); less than 100 µM with HXB2 virus (setting [5]); 0.18 µM in series [1]. For the same molecule, in the series on HeLa P4-2 cell line (cytotoxicity test B, Alamar Blue, HeLa P4-2 cells, no virus, tested up to 100 micromolar), the “Cytotoxicity (LD50, μM)” value is more than 100 µM.
`CNC(=O)c1c(O)c2cccnc2n(O)c1=O` [Example 24, 1,4-Dihydroxy-N-methyl-2-oxo-1,2-dihydro-1,8-naphthyridine-3-carboxamide]: the half-inhibitory concentration (IC50) against HIV integrase (setting [2]) is less than 50 µM; against HIV integrase (setting [3]), 0.55 µM; in the series with HXB2 virus (setting [4]), 0.22 µM; in the series on HXB2 virus (setting [5]), less than 100 µM; in series [1], 0.18 µM. Moreover, in the series with HeLa P4-2 cell line (human), the “Cytotoxicity (LD50, μM)” value is more than 100 µM.
As for `O=c1c(-c2ccccn2)c(O)c2cccnc2n1O` [Example 27, 1,4-Dihydroxy-3-pyridin-2-yl-1,8-naphthyridin-2(1B)-one], the IC50 against HIV integrase (setting [2]) is less than 50 µM; at HIV integrase (setting [3]), 0.06 µM; in the series on HXB2 virus (setting [4]), 0.5 µM; in the series with HXB2 virus (setting [5]), less than 100 µM; in series [1], 0.1 µM. In the series on HeLa P4-2 cell line (human), the “Cytotoxicity (LD50, μM)” value was 6.2 µM.
For `O=c1cc(-c2cnc3[nH]ccc3c2)c2cccnc2n1O` [Example 245, 1-hydroxy-4-(1H-pyrrolo[2,3-b]pyridin-5-yl)-1,8-naphthyridin-2(1H)-one bistrifluoroacetate], the IC50 at HIV integrase (setting [6]) was less than 50 µM; in the series on HXB2 virus (setting [5]), less than 100 µM.
As to `O=c1cc(C2=Cc3ccccc3CC2)c2cccnc2n1O` [Example 246, 4-(3,4-dihydronaphthalen-2-yl)-1-hydroxy-1,8-naphthyridin-2(1H)-one], the IC50 on HIV integrase (setting [6]) was less than 50 µM; in the series on HXB2 virus (setting [5]), less than 100 µM.
The like results for `O=C(c1cc(=O)n(O)c2ncccc12)N1CCc2ccccc2C1` [Example 247, 4-(3,4-dihydroisoquinolin-2(1H)-ylcarbonyl)-1-hydroxy-1,8-naphthyridin-2(1H)-one] were, in that order, less than 50 µM and less than 100 µM.
The like results for `CCOC(=O)c1c(-c2cccc(-c3ccc(CN)cc3)c2)c2cc(-c3ccccc3OC)cnc2n(O)c1=O` [Example 248, ethyl 4-[4′-(aminomethyl)biphenyl-3-yl]-1-hydroxy-6-(2-methoxyphenyl)-2-oxo-1,2-dihydro-1,8-naphthyridine-3-carboxylate] were, in that order, less than 50 µM and less than 100 µM.
In the case of `CCOC(=O)c1c(O)c2c(Cc3cccc(-c4cccc(CN)c4)c3)ccnc2n(O)c1=O` [Example 249, ethyl 5-{[3′-(aminomethyl)biphenyl-3-yl]methyl}-1,4-dihydroxy-2-oxo-1,2-dihydro-1,8-naphthyridine-3-carboxylate], the IC50 at HIV integrase (setting [6]) was less than 50 µM; in the series with HXB2 virus (setting [5]), less than 100 µM.
The like results for `Nc1cnc2c(c1)c(O)c(-c1ccccc1)c(=O)n2O` [Example 250, 6-amino-1,4-dihydroxy-3-phenyl-1,8-naphthyridin-2(1H)-one] were, in that order, less than 50 µM and less than 100 µM.
Take `Nc1cccc(-c2ccc3c(c2)CN(c2cc(=O)n(O)c4ncccc24)CC3)c1` [Example 251, 4-[7-(3-aminophenyl)-3,4-dihydroisoquinolin-2(1H)-yl]-1-hydroxy-1,8-naphthyridin-2(1H)-one]: the half-maximal inhibitory concentration (IC50) is less than 50 µM at HIV integrase (setting [6]) and less than 100 µM in the series with HXB2 virus (setting [5]).
`NCc1cccc(-c2ccc3c(c2)CN(c2cc(=O)n(O)c4ncccc24)CC3)c1` [Example 252, 4-[7-(3-aminomethylphenyl)-3,4-dihydroisoquinolin-2(1H)-yl]-1-hydroxy-1,8-naphthyridin-2(1H)-one]: the 50% inhibitory concentration (IC50) is less than 50 µM at HIV integrase (setting [6]) and less than 100 µM in the series on HXB2 virus (setting [5]).
The like results for `O=c1cc(N2CCc3ccc(-c4ccncc4)cc3C2)c2cccnc2n1O` [Example 253, 1-hydroxy-4-(7-pyridin-4-yl-3,4-dihydroisoquinolin-2(1H)-yl)-1,8-naphthyridin-2(1H)-one] were, in that order, less than 50 µM and less than 100 µM.
`Nc1ccc(-c2ccc3c(c2)CN(c2cc(=O)n(O)c4ncccc24)CC3)cc1` [Example 254, 4-[7-(4-aminophenyl)-3,4-dihydroisoquinolin-2(1H)-yl]-1-hydroxy-1,8-naphthyridin-2(1H)-one]: the IC50 on HIV integrase (setting [6]) was less than 50 µM; in the series on HXB2 virus (setting [5]), less than 100 µM.
The like results for `O=c1cc(N2Cc3ccc(-c4ccccc4)cc3C2)c2cccnc2n1O` [Example 256, 1-hydroxy-4-(5-phenyl-1,3-dihydro-2H-isoindol-2-yl)-1,8-naphthyridin-2(1H)-one] were, in that order, less than 50 µM and less than 100 µM.
The like results for `CCOC(=O)c1c(N2CCc3ccc(-c4ccc(F)cc4)cc3C2)c2cccnc2n(O)c1=O` [Example 258, ethyl 4-[7-(4-fluorophenyl)-3,4-dihydroisoquinolin-2(1H)-yl]-1-hydroxy-2-oxo-1,2-dihydro-1,8-naphthyridine-3-carboxylate] were, in that order, more than 50 µM and less than 100 µM.
With `CCOC(=O)c1c(N2CCc3ccc(-c4cccc(F)c4)cc3C2)c2cccnc2n(O)c1=O` [Example 259, ethyl 4-[7-(3-fluorophenyl)-3,4-dihydroisoquinolin-2(1H)-yl]-1-hydroxy-2-oxo-1,2-dihydro-1,8-naphthyridine-3-carboxylate], the IC50 at HIV integrase (setting [6]) was more than 50 µM; in the series on HXB2 virus (setting [5]), less than 100 µM.
The like results for `O=C(NCCc1ccccc1)c1ccc2c(c1)CN(c1cc(=O)n(O)c3ncccc13)CC2` [Example 260, 4-[7-(phenylethylaminocarbonyl)-3,4-dihydroisoquinolin-2(1H)-yl]-1-hydroxy-1,8-naphthyridin-2(1H)-one] were, in that order, less than 50 µM and less than 100 µM.
The like results for `O=C(NCc1ccccc1)c1ccc2c(c1)CCN(c1cc(=O)n(O)c3ncccc13)C2` [Example 261, 4-[6-(benzylaminocarbonyl)-3,4-dihydroisoquinolin-2(1H)-yl]-1-hydroxy-1,8-naphthyridin-2(1H)-one] were, in that order, less than 50 µM and less than 100 µM.
The like results for `CCOC(=O)c1c(-c2ccc(CCc3ccncc3)cc2)c2cccnc2n(O)c1=O` [Example 262, Ethyl 4-[4-(2-pyridin-4-ylethyl)phenyl]-hydroxy-2-oxo-1,2-dihydro-1,8-naphthyridin-3-carboxylate] were, in that order, less than 50 µM and less than 100 µM.
Turning to `CCOC(=O)c1c(-c2cc(CCc3ccccc3F)cc(-c3ccc(CN)cc3)c2)c2cccnc2n(O)c1=O` [Example 263, ethyl 4-[4′-aminomethyl-5-(2-fluorophenethyl)biphenyl-3-yl]1-hydroxy-2-oxo-1,2-dihydro-1,8-naphthyridine-3-carboxylate], the values for the 50% inhibitory concentration (IC50) at HIV integrase (setting [6]) and with HXB2 virus (setting [5]) were less than 50 µM and less than 100 µM, respectively.
`CCOC(=O)c1c(-c2ccc(CCc3ccc(N)cc3)cc2)c2cccnc2n(O)c1=O` [Example 264, ethyl 4-{4-[2-(4-aminophenyl)ethyl]phenyl}1-hydroxy-2-oxo-1,2,-dihydro-1,8-naphthyridin-3-carboxylate]: the IC50 at HIV integrase (setting [6]) was less than 50 µM; in the series on HXB2 virus (setting [5]), less than 100 µM.
The like results for `O=c1c2ccccc2c2cccnc2n1O` [Example 265, 5-Hydroxybenzo[c]-1,8-naphthyridin-6(5B)-one] were, in that order, less than 50 µM and less than 100 µM.
The like results for `CNC(=O)c1ccc2c(=O)n(O)c3ncccc3c2c1` [Example 266, 5-Hydroxy-N-methyl-6-oxo-5,6-dihydrobenzo[c]-1,8-naphthyridine-9-carboxamide] were, in that order, less than 50 µM and less than 100 µM.
The like results for `O=c1c2ccc(-c3ccccc3)cc2c2cccnc2n1O` [Example 267, 5-Hydroxy-9-phenylbenzo[c]-1,8-naphthyridin-6(5.H)-one] were, in that order, less than 50 µM and less than 100 µM.
`O=c1c2cc(-c3ccccc3)ccc2c2cccnc2n1O` [Example 268, 5-Hydroxy-8-phenylbenzo[c]-1,8-naphthyridin-6(5H)-one]: the IC50 at HIV integrase (setting [6]) was less than 50 µM; with HXB2 virus (setting [5]), less than 100 µM.
